Laboratory results reported in publication PMC11594329, “Development of LAT1-Selective Nuclear Medicine Therapeutics Using Astatine-211” (International Journal of Molecular Sciences, 2024).

Columns and labels:
[1] = Tissue distribution in ICR mice (normal animals); type: in vivo
Excerpt: ICR mice (male, 5 weeks old) were purchased from Japan SLC (Shizuoka, Japan) and acclimated for one week prior to use. The doses in the distribution experiments were as follows: ^211At-AAMT-O-Me-L (0.407 ± 0.005 MBq/mouse, 31.64 ± 0.76 g, n = 6), ^211At-AAMT-O-Me-D (0.351 ± 0.004 MBq/mouse, 31.44 ± 0.94 g, n = 6), ^211At-AAMT-O-Et-L (0.685 ± 0.010 MBq/mouse, 24.14 ± 3.31 g, n = 6), ^211At-AAMT-O-Pr-L (1.09 ± 0.06 MBq/mouse, 26.33 ± 0.39 g, n = 6)

LAT1-Tet/HEK293 cells = assay: Uptake versus LAT1 expression level (Dox-induced) in LAT1-Tet/HEK293 cells; type: cell-based; conditions: collection 30 min after treatment
Protocol: Each cell line was seeded in 24 wells at 1 × 10^5 cells/mL and allowed to become sub-confluent on the day of the experiment. Cells were washed with PBS (-) (Fujifilm Wako Pure Chemical, Osaka, Japan) prior to the addition of the compound, which was then replaced with uptake buffer. After treating the cells with the same dose, they were collected at predetermined time points. The cell dose was measured using a γ-counter (Wizard^2 2480; PerkinElmer, Waltham, MA, USA), and the protein content of the sample was determined. Protein content was measured using the BCA method, and the dose was corrected using the protein content (Protein Assay BCA kit, Fujifilm Wako Pure Chemical).
Figure 2 Comparison of uptake between the labeled compounds. (A) Relation between uptake ratio and LAT1 expression level. Uptake ratios were compared between LAT1-Tet/HEK293 cells. The Y-axis represents the uptake ratio, and the X-axis is concentration of Doxycycline (Dox) (TaKaRa Bio, Shiga, Japan). The collection time was 30 min after treatment. The expression of LAT1 increased with increasing amounts of Dox. (B) Comparison of uptake in PANC-1 cell line. The collection times were 0.5, 1, 5 and 10 min after treatment.
The PANC-1 cell line was obtained from the RIKEN Cell Bank and maintained in RPMI 1640 medium (Fujifilm Wako Pure Chemical, Osaka, Japan) supplemented with 10% inactivated fetal bovine serum (Thermo Fisher Scientific, Waltham, MA, USA). Mock/HEK293, LAT1/HEK293, and LAT2/HEK203 cells were kindly provided by Dr. Kanai. Cell lines controlling LAT1 expression were constructed using the Tet-on system. HEK293 cells were obtained from the RIKEN Cell Bank and maintained in E-MEM (Fujifilm Wako Pure Chemical) supplemented with 10% inactivated fetal bovine serum (Thermo Fisher Scientific) and non-essential amino acids (Fujifilm Wako Pure Chemical). The expression vectors were purchased from VectorBuilder, Inc. (Kanagawa, Japan). The purified viral particle genes were transfected into HEK293 cells. Drug selection and cloning of the cell line (Tet-LAT1/HEK293) were performed. […]

PANC-1 tumor model = assay: Tissue distribution in nude mice (PANC-1 tumor model); type: in vivo, BALB/c nu/nu mice; conditions: nude mice (PANC-1 tumor model)
Protocol: BALB/c nu/nu mice (male, 5 weeks old) were purchased from Japan SLC (Shizuoka, Japan) and subcutaneously transplanted at a density of 1 × 10^7 cells/mouse. PANC-1 cells that reached the logarithmic growth phase were transplanted subcutaneously by mixing a 1 × 10^8 cells/mL cell suspension with an equivalent volume of Matrigel (Corning, Corning, NY, USA) to obtain 1 × 10^7 cells per mouse. Experiments were performed after the size of the transplanted tumor had exceeded 50 mm^3. The doses in the distribution experiments were as follows: ^211At-AAMT-OH-L (0.501 ± 0.011 MBq/mouse, 19.91 ± 0.59 g, n = 3) and ^211At-AAMT-O-Me-L (0.384 ± 0.003 MBq/mouse, 19.18 ± 0.38 g, n = 6 for Table 3), ^211At-AAMT-O-Me-L (158.10 ± 2.94 kBq/mouse, 19.27 ± 0.64 g, n = 6) and ^211At-AAMT-O-Me-D (135.08 ± 2.35 kBq/mouse, 18.64 ± 0.97 g, n = 6), ^211At-AAMT-O-Et-L (0.682 ± 0.011 MBq/mouse, 20.25 ± 1.41 g, n = 6), ^211At-AAMT-O-Pr-L (0.927 ± 0.020 MBq/mouse, 21.74 ± 0.37 g, n = 6).

## CCOc1ccc(C[C@](C)(N)C(=O)O)cc1[211At] [^211At-AAMT-O-Et-L]
[1]; 1 h after injection
  Tissue distribution, Bladder: 53.22 ± 43.79 %ID/g
  Tissue distribution, Blood: 2.03 ± 0.61 %ID/g
  Tissue distribution, Bone: 0.71 ± 0.32 %ID/g
  Tissue distribution, Brain: 0.37 ± 0.07 %ID/g
  Tissue distribution, Cecum: 0.68 ± 0.25 %ID/g
  Tissue distribution, Colon: 8.32 ± 4.87 %ID/g
  Tissue distribution, Heart: 6.14 ± 3.75 %ID/g
  Tissue distribution, Kidney: 4.70 ± 1.68 %ID/g
  Tissue distribution, Liver: 1.41 ± 0.33 %ID/g
  Tissue distribution, Lung: 4.47 ± 1.34 %ID/g
  Tissue distribution, Pancreas: 7.31 ± 4.45 %ID/g
  Tissue distribution, Salivary glands: 7.08 ± 2.00 %ID/g
  Tissue distribution, Small intestine: 12.85 ± 7.35 %ID/g
  Tissue distribution, Spleen: 2.90 ± 0.95 %ID/g
  Tissue distribution, Stomach: 19.50 ± 5.82 %ID/g
  Tissue distribution, Testis: 2.36 ± 0.28 %ID/g
  Tissue distribution, Thymus: 1.14 ± 0.68 %ID/g
  Tissue distribution, Thyroid: 8.98 ± 4.12 %ID/g
[1]; 3 h after injection
  Tissue distribution, Bladder: 21.28 ± 15.54 %ID/g
  Tissue distribution, Blood: 0.87 ± 0.27 %ID/g
  Tissue distribution, Bone: 1.00 ± 0.18 %ID/g
  Tissue distribution, Brain: 0.13 ± 0.05 %ID/g
  Tissue distribution, Cecum: 1.67 ± 0.24 %ID/g
  Tissue distribution, Colon: 1.75 ± 0.49 %ID/g
  Tissue distribution, Heart: 1.87 ± 0.80 %ID/g
  Tissue distribution, Kidney: 1.56 ± 0.13 %ID/g
  Tissue distribution, Liver: 1.06 ± 0.21 %ID/g
  Tissue distribution, Lung: 4.93 ± 1.95 %ID/g
  Tissue distribution, Pancreas: 1.20 ± 0.40 %ID/g
  Tissue distribution, Salivary glands: 15.05 ± 7.81 %ID/g
  Tissue distribution, Small intestine: 3.21 ± 0.88 %ID/g
  Tissue distribution, Spleen: 2.09 ± 1.08 %ID/g
  Tissue distribution, Stomach: 38.74 ± 10.11 %ID/g
  Tissue distribution, Testis: 1.20 ± 0.36 %ID/g
  Tissue distribution, Thymus: 0.26 ± 0.17 %ID/g
  Tissue distribution, Thyroid: 20.22 ± 6.28 %ID/g
LAT1-Tet/HEK293 cells
  Uptake ratio versus LAT1 expression (doxycycline concentration): lower cellular uptake when LAT1 expression increased
PANC-1 tumor model; 1 h after injection
  Tissue distribution, Bladder: 15.41 ± 4.39 %ID/g
  Tissue distribution, Blood: 3.63 ± 0.43 %ID/g
  Tissue distribution, Bone: 1.92 ± 0.21 %ID/g
  Tissue distribution, Brain: 0.65 ± 0.11 %ID/g
  Tissue distribution, Cecum: 2.36 ± 0.52 %ID/g
  Tissue distribution, Colon: 3.80 ± 0.50 %ID/g
  Tissue distribution, Heart: 4.41 ± 0.46 %ID/g
  Tissue distribution, Kidney: 6.23 ± 0.94 %ID/g
  Tissue distribution, Liver: 2.54 ± 0.28 %ID/g
  Tissue distribution, Lung: 9.69 ± 1.20 %ID/g
  Tissue distribution, Pancreas: 4.56 ± 0.82 %ID/g
  Tissue distribution, Salivary glands: 13.69 ± 2.13 %ID/g
  Tissue distribution, Small intestine: 4.80 ± 0.63 %ID/g
  Tissue distribution, Spleen: 10.32 ± 4.17 %ID/g
  Tissue distribution, Stomach: 33.25 ± 8.36 %ID/g
  Tissue distribution, Testis: 3.29 ± 0.07 %ID/g
  Tissue distribution, Thyroid: 24.50 ± 4.40 %ID/g
  Tissue distribution, Tumor: 5.64 ± 0.91 %ID/g
PANC-1 tumor model; 3 h after injection
  Tissue distribution, Bladder: 12.03 ± 3.42 %ID/g
  Tissue distribution, Blood: 2.23 ± 0.06 %ID/g
  Tissue distribution, Bone: 1.41 ± 0.16 %ID/g
  Tissue distribution, Brain: 0.36 ± 0.10 %ID/g
  Tissue distribution, Cecum: 2.80 ± 0.56 %ID/g
  Tissue distribution, Colon: 3.63 ± 0.34 %ID/g
  Tissue distribution, Heart: 5.15 ± 0.95 %ID/g
  Tissue distribution, Kidney: 3.74 ± 0.78 %ID/g
  Tissue distribution, Liver: 1.93 ± 0.23 %ID/g
  Tissue distribution, Lung: 10.67 ± 1.28 %ID/g
  Tissue distribution, Pancreas: 2.01 ± 0.20 %ID/g
  Tissue distribution, Salivary glands: 19.70 ± 2.93 %ID/g
  Tissue distribution, Small intestine: 3.23 ± 0.22 %ID/g
  Tissue distribution, Spleen: 13.31 ± 2.43 %ID/g
  Tissue distribution, Stomach: 18.47 ± 2.59 %ID/g
  Tissue distribution, Testis: 3.32 ± 0.33 %ID/g
  Tissue distribution, Thyroid: 31.26 ± 11.36 %ID/g
  Tissue distribution, Tumor: 5.24 ± 1.39 %ID/g

## C[C@](N)(Cc1ccc(O)c([211At])c1)C(=O)O [^211At-AAMT-OH-L, 3-[^211At] Astato-α-methyl-L-tyrosine]
PANC-1 tumor model; 24 h after injection
  Tissue distribution, Bladder: 1.01 ± 0.10 %ID/g
  Tissue distribution, Blood: 0.04 ± 0.02 %ID/g
  Tissue distribution, Bone: 4.29 ± 3.90 %ID/g
  Tissue distribution, Brain: 0.68 ± 0.16 %ID/g
  Tissue distribution, Cecum: 6.60 ± 2.78 %ID/g
  Tissue distribution, Colon: 1.03 ± 0.34 %ID/g
  Tissue distribution, Heart: 2.29 ± 1.20 %ID/g
  Tissue distribution, Kidney: 0.07 ± 0.02 %ID/g
  Tissue distribution, Liver: 1.02 ± 0.60 %ID/g
  Tissue distribution, Lung: 1.90 ± 0.55 %ID/g
  Tissue distribution, Pancreas: 2.39 ± 2.03 %ID/g
  Tissue distribution, Salivary glands: 0.42 ± 0.17 %ID/g
  Tissue distribution, Small intestine: 0.09 ± 0.01 %ID/g
  Tissue distribution, Spleen: 0.72 ± 0.22 %ID/g
  Tissue distribution, Stomach: 1.84 ± 0.81 %ID/g
  Tissue distribution, Testis: 0.57 ± 0.44 %ID/g
  Tissue distribution, Thyroid: 11.65 ± 4.36 %ID/g
  Tissue distribution, Tumor: 0.71 ± 0.46 %ID/g
PANC-1 tumor model; after 24 h
  Amount remaining in cecum relative to ^211At-AAMT-O-Me-L: 3.2 fold
  Amount remaining in femur, including the bone marrow, relative to ^211At-AAMT-O-Me-L: 5.7 fold
  Amount remaining in pancreas relative to ^211At-AAMT-O-Me-L: 4.1 fold
  Amount remaining in thyroid relative to ^211At-AAMT-O-Me-L: 5.2 fold
